Patent US4857549A, “Antitumor compounds” (priority 1988, dated 1989)
pIC50: −log10 of the molar value. Where “and” joins values, the source holds several entries; their conditions need not be identical. Equal entries are not always repeated. Where two headings read alike, the source gives them in different places.

Key:
ADJ-PC6 Plasmacytoma = assay: ADJ-PC6 plasmacytoma assay
Procedure: (§1) Tumor cells are carried by serial sc passage in BALB/c female mice and then collected aseptically on ca. Day 21 and minced in Hank's balanced salt solution. The cells are then dispersed by homogenization in a loose-fitting teflon glass homogenizer, and cell concentration is adjusted to 4×10^6 viable ([…]) cells per ml by hemocytometer counts. A total of 0.5 ml (2×10^6 cells) is implanted sc on the right flank of BALB/c female mice in groups of 8. Treatment is given ip on Days 1-10, and tumors are measured in perpendicular diameters with a vernier caliper on Day 18.
(§2) ^(b) maximally tolerated dose for BALB/c female mice on an ip qD

[1] = tested on: B16 melanoma cells (highly metastatic subline, F10); assay: B16 melanoma in vitro cloning (colony forming) assay, 2 hour exposure; assay type: cell-based; details: read-out: IC50: concentration which inhibits cloning efficiency of B16 melanoma cells by 50%
Procedure: Initially, the cytotoxic activity of the Formula (I) and Formula (IA) compounds used in the pharmaceutical compositions and methods of treatment of the instant invention was evaluated in vitro using B16 melanoma cells according to the following assay:
B16 melanoma (highly metastatic subline, F10) are used and maintained as monolayer cultures in Minimal Essential Media (Grand Island Biological Co., Grand Island, N.Y. ) supplemented with 10% calf serum, 1% antibiotics in a 5% CO2 humidified incubator at 37° C. Asynchronous populations of cells are harvested and replated to 5000 cells/plate in sterile 60 mm×15 mm petri plates. Plates are incubated overnight to allow attachment of the cells to the plate. Cells are treated with a Formula (I) or Formula (IA) compound or cisplatin under sterile conditions, allowed to react for 2 hours followed by aspiration of medium. Plates are washed one time with 5 ml of phosphate buffered saline (PBS), followed by the addition of 5 ml of fresh media. Plates are incubated for 5 days at 37° in a CO2 incubator. Viability is measured by the ability of a cell to form a colony of greater than 50 cells. Colonies are fixed with 0.5% crystal violet in 95% ethanol. Plates are dried and counted with a Biotran III Automatic Count Totalizer (New Brunswick Scientific Co., Edison, N.J.). Mean and standard deviation of triplicate samples are determined for each drug concentration. The data are analyzed by plotting the log of the survival fraction (number of colonies in drug treated plates/number of colonies in controls) versus the drug concentration.
^(a) concentration which inhibits cloning efficiency of B16 melanoma
cells by 50% on a 2hour exposure.

Kidney tumor = details: Table 3, Kidney; response = ≤50% survival of tumor colony forming units
Source text: (§4) Tumor Specimens: Specimens were collected using asceptic technique and transported in medium containing Penicillin, Streptomycin, and Amphotericin B. Specimens which could not be immediately processed were minced into fragments 5 mm^3 or smaller, prior to transport. Effusions were collected with ten units of preservative free heparin per ml of effusion. Specimens were processed to obtain cell suspensions as soon as possible after removal from the patient.
(§5) Culture Methods: A two-layer soft agar culture system was used in these studies. […] Cell counts were performed on a hemacytometer after lysis of erythrocytes in acetic acid. A total of 500,000 nucleated cells were plated in a volume of 1 ml (0.3 percent agar) over 1 ml base layers (0.6 percent agar) in each culture. Cultures were incubated in humidified 37° C. incubators with an atmosphere of 5 percent CO2 in air and control plates monitored for growth using an inverted microscope. At the time of maximum colony formation (7-21 days in culture) final colony counts were obtained with a Bausch and Lomb FAS II image analysis system. Objects presenting a circular profile in two dimensions with a minimum diameter of 60 μm were scored as colonies by the system.
(§6) Drug Treatment: A total of six untreated or vehicle treated cultures were plated for determination of control growth in each experiment. […]

Ovary tumor = details: Table 3, Ovary; response = ≤50% survival of tumor colony forming units
Source text: as §4, §5, §6

B16 melanoma = assay: in vivo ip B16 melanoma assay
Procedure: (§7) The cytotoxic activity of several compounds of Formula (I) was evaluated in vivo using B16 melanoma cells according to the following assay:
(§8) In this system, groups of eight B6D2F1 mice are inoculated ip with 0.5 ml of a 10% (w:v) brei of B16 melanoma prepared from pooled sc tumors excised at 14.noteq.21 days from C67B1 /6 donor mice. Daily treatment is begun 24 hours after tumor implantation and is continued daily for 10 days. The route of drug administration is ip. The mice are monitored daily for survival for 60 days. Antitumor activity is assessed by prolongation of median survival time.

Corpus uterus tumor = details: Table 3, Corpus uterus; response = ≤50% survival of tumor colony forming units
Source text: as §4, §5, §6

[2] = tested on: mammary adenocarcinoma 16/c; assay: sc mammary adenocarcinoma 16/c assay
Procedure: (§9) The mammary adenocarcinoma 16/c tumor is implanted sc in C3H mice, and the Formula (I) compound is administered ip on days 1, 5, 9, 13 and 17. Tumors are measured 3 weeks after implantation, and activity is assessed by degree of tumor growth inhibition.

[3] = tested on: human tumor colony forming units; assay: human tumor cloning assay (all tumor types); assay type: cell-based
Procedure: The cytotoxic activity of Compound No. 2 from TABLE A, namely μ-[1,2-bis(diphenylphosphino)ethane]bis-[chlorogold (I)], was also determined in a human tumor cloning assay. This procedure is described as follows:
[Salmon, et al., N. Engl. J. Med., 298:1321 (1978)].

Breast tumor = details: Table 3, Breast; response = ≤50% survival of tumor colony forming units
Source text: as §4, §5, §6

[4] = tested on: M5076 reticulum cell sarcoma; assay: ip M5076 reticulum cell sarcoma assay in mice; details: for MTD (maximally tolerated dose): B6D2F1 female mice; for MTD (maximally tolerated dose) / ILS max (maximum increase in lifespan): ip qD × 10; for ILS max (maximum increase in lifespan): ip M5076 sarcoma mice, slash = separate experiments
Procedure: Another chemosensitive tumor model is intraperitoneally (ip) implanted M5076 reticulum cell sarcoma in mice. In this system B6D2F1 female mice are inoculated with 0.5 ml of a 10 percent weight:volume (w:v) brei of M5076 prepared from pooled subcutaneous (sc) tumors excised at about 21 days from c57B1/6 donor mice. Drugs are administered ip. Daily treatment is begun 24 hours after implantation and is continued for ten days. The treatment regimen for M5076 is more prolonged than for P388 because of the slower growth rate and longer control survival time of the M5076 tumor.

Unknown primary tumor = details: Table 3, Unknown primary; response = ≤50% survival of tumor colony forming units
Source text: as §4, §5, §6

Melanoma = details: Table 3, Melanoma; response = ≤50% survival of tumor colony forming units
Source text: as §4, §5, §6

Lung tumor = details: Table 3, Lung; response = ≤50% survival of tumor colony forming units
Source text: as §4, §5, §6

[5] = ADJ-PC6 plasmacytoma assay; details: mouse, in vivo, ip
Procedure: as §1, §2

[6] = in vivo ip B16 melanoma assay; details: mouse, in vivo, ip
Procedure: as §7, §8

cells = details: Struck et al., J. Med. Chem. (1966); cited from earlier work
in vivo = details: mouse, ip
[7] = sc mammary adenocarcinoma 16/c assay; details: mouse, in vivo
Procedure: as §9

Lewis Lung tumor = assay: ip Lewis Lung tumor assay; assay type: in vivo; set-up: ILS: dose or concentration left out as unconfirmed; details: at MTD of […] mg/kg, q4D×4 regimen
Source text: (§3) The protocol for carrying out this tumor assay is well known to those of skill in the art.

[8] = ip Lewis Lung tumor assay; assay type: in vivo; set-up: ILS: dose or concentration left out as unconfirmed; details: in vivo; q4D×4 regimen
Source text: as §3

[9] = tested on: Madison 109 lung carcinoma; assay: ip Madison 109 lung carcinoma tumor assay; details: at MTD of 16 mg/kg, q4D×4 regimen
[10] = ip Madison 109 lung carcinoma tumor assay; details: in vivo
[11] = Table 1, ≤30% survival of tumor colony forming units, 10 μg/ml, continuous exposure
[12] = Table 1, ≤50% survival of tumor colony forming units, 10 μg/ml, continuous exposure
[13] = Table 3, all tumor types, response = ≤50% survival of tumor colony forming units

Compound: [Cl][Au][PH](CC[PH]([Au][Cl])(c1ccccc1)c1ccccc1)(c1ccccc1)c1ccccc1 [Compound 2, μ-[1,2-bis(diphenylphosphino)ethane]bis-[chlorogold (I)]]
- % Inhibition of tumor growth (ADJ-PC6 Plasmacytoma; Table G, ip days 1-10, tumors measured day 18, slash = separate experiments): 96% and 93%
- antitumor activity in ADJ-PC6 Plasmacytoma (ADJ-PC6 Plasmacytoma; in words, based on Table G): excellent antitumor activity
- pIC50 ([1]; Table A, Formula (I)): 5.10
- # responses/# evaluable (Kidney tumor): 2/2
- # responses/# evaluable (Ovary tumor): 4/6
- MTD (maximally tolerated dose) (B16 melanoma; Table E, B6D2F1 mice, ip qD × 10): 5 um/kg
- # responses/# evaluable (Corpus uterus tumor): 1/1
- MTD (maximally tolerated dose) ([2]; Table F, C3H mice, intermittent ip regimen): 9 um/kg
- # responses ≤30%/# evaluable [3, 11]: 6/19
- responses ≤30% (% of evaluable) [3, 11]: 32%
- # responses ≤50%/# evaluable [3, 12]: 11/19
- responses ≤50% (% of evaluable) [3, 12]: 58%
- # responses/# evaluable, TOTALS [3, 13]: 11/19
- responses, TOTALS (% of evaluable) [3, 13]: 58%
- in vitro cytotoxic activity against primary human tumor cells ([3]; in words): substantial in vitro cytotoxic activity
- # responses/# evaluable (Breast tumor): 1/3
- MTD (maximally tolerated dose) ([4]; Table C): 4 mg/kg
- ILS max (maximum increase in lifespan) ([4]; Table C, compound 2: seven experiments): 76 ± 30%
- activity in the ip M5076 reticulum cell sarcoma assay ([4]; in words, based on Tables C and D): good activity
- # responses/# evaluable (Unknown primary tumor): 2/3
- MTD (maximally tolerated dose) (P388 leukemia; Table B, B6D2F1 female mice, ip qD × 5): 6 mg/kg
- # responses/# evaluable (Melanoma): 0/1
- # responses/# evaluable (Lung tumor): 1/3

Compound: c1ccc(P(CCP(c2ccccc2)c2ccccc2)c2ccccc2)cc1 [Compound 33, bis(1,2-diphenylphosphino)-ethane]
- MTD (ADJ-PC6 Plasmacytoma; one experiment): 6 mg/kg
- tumor growth inhibition (ADJ-PC6 Plasmacytoma; one experiment, at MTD of 6 mg/kg): 94%
- tumor growth inhibition (ADJ-PC6 Plasmacytoma; second experiment, at MTD of 4 mg/kg): 49%
- MTD [5]: 4 mg/kg
- pIC50 ([1]; Mus musculus, B16, Table AI, Formula (IA)): 4.22
- MTD [6]: 5 mg/kg
- ILS (B16 melanoma; at MTD of 5 mg/kg, three separate experiments, listed as Compound No. 2 from Table BI, 5 mg/kg): 64% and 49% and 39%
- alleged cytotoxic activity (cells): alleged cytotoxic activity
- MTD (in vivo): 16 mg/kg
- MTD ([7]; ip): 30 mg/kg
- MTD ([7]; iv): 32 mg/kg
- tumor inhibition ([2]; iv, at MTD of 32 mg/kg): 95%
- MTD (maximally tolerated dose) ([4]; Table D): 6 mg/kg
- ILS max (maximum increase in lifespan) ([4]; Table D): 70% and 96% and 68%
- ILS (maximum increase in lifespan) (P388 leukemia; Table BI, ip P388 leukemia mice, ip days 1-5, slash-separated figures are separate experiments, compound 33: 41 experiments): 98 ± 26%
- ILS (Lewis Lung tumor): 69%
- MTD [8]: 12 mg/kg
- ILS [9]: 50%
- MTD [10]: 16 mg/kg
